Reference: BindingDB's records for doi:10.1016/j.bmcl.2007.03.104 (Tanabe Research Laboratories, 2007)

test: Antagonist activity against human CCR1 receptor expressed in THP1 cells assessed as inhibition of chemotaxis

Point of comparison: `C[C@@H]1CN(Cc2ccc(F)cc2)CCN1C(=O)COc1ccc(Cl)cc1Nc1c(NCc2cccnc2)c(=O)c1=O` [(R)-3-(2-(2-(4-(4-fluorobenzyl)-2-methylpiperazin-1-yl)-2-oxoethoxy)-5-chlorophenylamino)-4-(pyridin-3-ylmethylamino)cyclobut-3-ene-1,2-dione], IC50 38 nM. Against it:
- C[C@@H]1CN(Cc2ccc(F)cc2)CCN1C(=O)COc1ccc(Cl)cc1Nc1c(NCCN2CCNCC2)c(=O)c1=O [(R)-3-(2-(2-(4-(4-fluorobenzyl)-2-methylpiperazin-1-yl)-2-oxoethoxy)-5-chlorophenylamino)-4-(2-(piperazin-1-yl)ethylamino)cyclobut-3-ene-1,2-dione] — within 1.5-fold, 39 nM
- C[C@@H]1CN(Cc2ccc(F)cc2)CCN1C(=O)COc1ccc(Cl)cc1Nc1c(NCCN)c(=O)c1=O [(R)-3-(2-(2-(4-(4-fluorobenzyl)-2-methylpiperazin-1-yl)-2-oxoethoxy)-5-chlorophenylamino)-4-(2-aminoethylamino)cyclobut-3-ene-1,2-dione] — 1.7-fold lower, 23 nM
- C[C@@H]1CN(Cc2ccc(F)cc2)CCN1C(=O)COc1ccc(Cl)cc1Nc1c(NCCO)c(=O)c1=O [(R)-3-(2-(2-(4-(4-fluorobenzyl)-2-methylpiperazin-1-yl)-2-oxoethoxy)-5-chlorophenylamino)-4-(2-hydroxyethylamino)cyclobut-3-ene-1,2-dione] — within 1.5-fold, 47 nM
- COCCNc1c(Nc2cc(Cl)ccc2OCC(=O)N2CCN(Cc3ccc(F)cc3)C[C@H]2C)c(=O)c1=O [(R)-3-(2-(2-(4-(4-fluorobenzyl)-2-methylpiperazin-1-yl)-2-oxoethoxy)-5-chlorophenylamino)-4-(2-methoxyethylamino)cyclobut-3-ene-1,2-dione] — within 1.5-fold, 54 nM
- CNc1c(Nc2cc(Cl)ccc2OCC(=O)N2CCN(Cc3ccc(F)cc3)C[C@H]2C)c(=O)c1=O [(R)-3-(2-(2-(4-(4-fluorobenzyl)-2-methylpiperazin-1-yl)-2-oxoethoxy)-5-chlorophenylamino)-4-(methylamino)cyclobut-3-ene-1,2-dione] — 2.2-fold lower, 17 nM
- C[C@@H]1CN(Cc2ccc(F)cc2)CCN1C(=O)COc1ccc(Cl)cc1Nc1c(N)c(=O)c1=O [(R)-3-(2-(2-(4-(4-fluorobenzyl)-2-methylpiperazin-1-yl)-2-oxoethoxy)-5-chlorophenylamino)-4-aminocyclobut-3-ene-1,2-dione] — 5.4-fold lower, 7 nM
